From US20240246977A1, “DEGRADATION OF BRUTON'S TYROSINE KINASE (BTK) BY CONJUGATION OF BTK INHIBITORS WITH E3 LIGASE LIGAND AND METHOD OF USE” (BeiGene Switzerland GmbH, priority 2021, published 2024) come the findings set out here.

For one assay, the target named is BTK (Homo sapiens, UniProt Q06187). The assay can be described thus: BTK cell degradation in TMD-8 cells, HTRF assay. Also noted: endogenous in cells; host or cells: TMD-8 cells. To be noted: 6 h treatment, IC50 (DC50) of BTK degradation. The assay is classed as cell-based. In short, it runs like this:
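BTK levels read by HTRF in lysates of TMD-8 cells exposed to compounds for 6 h, eight concentrations at 6-fold steps in 0.2% DMSO. Percent degradation versus DMSO and low controls was fitted with a four-parameter equation to give DC50; Dmax is maximal degradation.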
Background: In TR-FRET formats the signal depends on donor and acceptor labels being close together.

Another assay has as its system HEK-293 cells. Description: HEK-293 cytotoxicity detection (CellTiter-Glo). In kind it is cell-based. To be noted: Homo sapiens, 72 h, 72 h incubation, CellTiter-Glo luminescence, read-out: HEK293. A digest of the protocol:
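HEK-293 cells exposed 72 h to 8 compounds doses (4-fold dilutions, top stock 5 mM at 500×) in 0.2% DMSO. Viability by CellTiter-Glo luminescence; inhibition normalised to DMSO high control and low control, IC50 from four-parameter curve fit.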

Usually DC50 stands for the concentration giving 50% degradation. High values mean a less potent degrader, low ones a more potent degrader.

BTK, sequence (Q06187 whole entry): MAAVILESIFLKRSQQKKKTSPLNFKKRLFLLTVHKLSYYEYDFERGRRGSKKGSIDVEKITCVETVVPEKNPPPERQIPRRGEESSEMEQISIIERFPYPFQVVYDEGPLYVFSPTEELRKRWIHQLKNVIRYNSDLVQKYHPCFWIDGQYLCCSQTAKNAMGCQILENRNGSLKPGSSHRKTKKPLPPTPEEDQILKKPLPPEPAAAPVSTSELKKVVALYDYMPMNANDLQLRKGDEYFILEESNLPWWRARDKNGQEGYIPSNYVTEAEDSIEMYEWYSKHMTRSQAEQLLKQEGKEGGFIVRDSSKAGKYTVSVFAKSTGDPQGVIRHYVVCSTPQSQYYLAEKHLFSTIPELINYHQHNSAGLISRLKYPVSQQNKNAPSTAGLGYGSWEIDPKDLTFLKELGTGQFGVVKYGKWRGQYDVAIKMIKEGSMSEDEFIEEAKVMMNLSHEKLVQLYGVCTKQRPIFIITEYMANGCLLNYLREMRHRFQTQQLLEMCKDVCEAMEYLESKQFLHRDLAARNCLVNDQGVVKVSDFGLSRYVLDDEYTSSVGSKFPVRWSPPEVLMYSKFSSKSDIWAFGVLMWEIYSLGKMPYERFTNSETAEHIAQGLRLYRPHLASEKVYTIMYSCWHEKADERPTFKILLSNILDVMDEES

Consider `NC(=O)c1c(-c2ccc(Oc3ccccc3)cc2)nn2c1Nc1cc(C3CCN(CCC4CCN(c5ccc(N6CCC(=O)NC6=O)cc5)CC4)CC3)ccc1CC2` [Example A23, 6-(1-(2-(1-(4-(2,4-dioxotetrahydropyrimidin-1(2H)-yl)phenyl)piperidin-4-yl)ethyl)piperidin-4-yl)-2-(4-phenoxyphenyl)-9,10-dihydro-4H-benzo[d]pyrazolo[1,5-a] [1,3]diazepine-3-carboxamide], for which the DC50 on BTK came out at 9.23 nM. For the same molecule, in the assay with HEK-293 cells, the IC50 turned out to be 445 nM.

Molecule `COc1cc(C)ccc1C(=O)NCc1ccc(-c2nn3c(c2C(N)=O)Nc2ccc(N4CCN(CC5CCN(c6ccc(N7CCC(=O)NC7=O)cc6)CC5)CC4)cc2CC3)cc1C` [Example C31, 7-(4-((1-(4-(2,4-dioxotetrahydropyrimidin-1(2H)-yl)phenyl)piperidin-4-yl)methyl)piperazin-1-yl)-2-(4-((2-methoxy-4-methylbenzamido)methyl)-3-methylphenyl)-9,10-dihydro-4H-benzo[d]pyrazolo[1,5-a][1,3]diazepine-3-carboxamide] had a DC50 on BTK of 7.02 nM. The IC50 with HEK-293 cells was over 10000 nM.

At BTK, `Cc1cccc(NC(=O)c2ccc(-c3nn4c(c3C(N)=O)Nc3ccc(N5CCN(CCc6cc(F)c([C@H]7CCC(=O)NC7=O)c(F)c6)CC5)cc3CC4)c(F)c2C)n1` [Example B63, (R)-7-(4-(4-(2,6-dioxopiperidin-3-yl)-3,5-difluorophenethyl)piperazin-1-yl)-2-(2-fluoro-3-methyl-4-((6-methylpyridin-2-yl)carbamoyl)phenyl)-9,10-dihydro-4H-benzo[d]pyrazolo[1,5-a][1,3]diazepine-3-carboxamide] showed a DC50 of 2.32 nM. Moreover, in the assay on HEK-293 cells, the IC50 was over 10000 nM.

On BTK, `COc1ccc(C(F)(F)F)cc1C(=O)NCc1ccc(-c2nn3c(c2C(N)=O)Nc2ccc(N4CCN(CC5CCN(c6ccc(N7CCC(=O)NC7=O)cc6)CC5)CC4)cc2CC3)cc1C` [Example C11, 7-(4-((1-(4-(2,4-dioxotetrahydropyrimidin-1(2H)-yl)phenyl)piperidin-4-yl)methyl)piperazin-1-yl)-2-(4-((2-methoxy-5-(trifluoromethyl)benzamido)methyl)-3-methylphenyl)-9,10-dihydro-4H-benzo[d]pyrazolo[1,5-a][1,3]diazepine-3-carboxamide] registered a DC50 of 3.36 nM. In addition, the IC50 with HEK-293 cells was over 10000 nM.

Take `NC(=O)c1c(-c2ccc(C(=O)Nc3cccc(C(F)(F)F)n3)cc2)nn2c1Nc1ccc(N3CCN(CC4CCN(c5ccc(N6CCC(=O)NC6=O)cc5)CC4)CC3)cc1CC2` [Example B16, 7-(4-((1-(4-(2,4-dioxotetrahydropyrimidin-1(2H)-yl)phenyl)piperidin-4-yl)methyl)piperazin-1-yl)-2-(4-((6-(trifluoromethyl)pyridin-2-yl)carbamoyl)phenyl)-9,10-dihydro-4H-benzo[d]pyrazolo[1,5-a][1,3]diazepine-3-carboxamide]: the DC50 on BTK turned out to be 1.32 nM. Also, in the assay on HEK-293 cells, the IC50 was 232 nM.

At BTK, `Cc1c(C(=O)Nc2cscn2)ccc(-c2nn3c(c2C(N)=O)Nc2ccc(N4CCN(CC5CCN(c6ccc(N7CCC(=O)NC7=O)cc6)CC5)CC4)cc2CC3)c1F` [Example B94, 7-(4-((1-(4-(2,4-dioxotetrahydropyrimidin-1(2H)-yl)phenyl)piperidin-4-yl)methyl)piperazin-1-yl)-2-(2-fluoro-3-methyl-4-(thiazol-4-ylcarbamoyl)phenyl)-9,10-dihydro-4H-benzo[d]pyrazolo[1,5-a][1,3]diazepine-3-carboxamide] yielded a DC50 of 0.378 nM. Moreover, the IC50 in the assay on HEK-293 cells is over 10000 nM.

Turning to `CC(C)(C)c1ccc(Oc2ccc(-c3nn4c(c3C(N)=O)Nc3ccc(C5CCN(CC6CCN(c7ccc(N8CCC(=O)NC8=O)cc7)CC6)CC5)cc3CC4)cc2)cc1` [Example A31, 2-(4-(4-(tert-butyl)phenoxy)phenyl)-7-(1-((1-(4-(2,4-dioxotetrahydropyrimidin-1(2H)-yl)phenyl)piperidin-4-yl)methyl)piperidin-4-yl)-9,10-dihydro-4H-benzo[d]pyrazolo[1,5-a][1,3]diazepine-3-carboxamide], the DC50 at BTK was determined as 11.9 nM. The IC50 in the assay with HEK-293 cells is 556 nM.

For `NC(=O)c1c(-c2ccc(Oc3ccccc3)cc2)nn2c1Nc1cc(OCCC3CCN(c4ccc(N5CCC(=O)NC5=O)cc4)CC3)ccc1CC2` [Example A25, 6-(2-(1-(4-(2,4-dioxotetrahydropyrimidin-1(2H)-yl)phenyl)piperidin-4-yl)ethoxy)-2-(4-phenoxyphenyl)-9,10-dihydro-4H-benzo[d]pyrazolo[1,5-a][1,3]diazepine-3-carboxamide], the DC50 on BTK amounted to 24.9 nM. The IC50 in the assay with HEK-293 cells was over 10000 nM.

As to `Cc1c(-c2nc(-c3ccccn3)no2)ccc(-c2nn3c(c2C(N)=O)Nc2ccc(N4CCN(CC5CCN(c6ccc(N7CCC(=O)NC7=O)cc6)CC5)CC4)cc2CC3)c1F` [Example B46, 7-(4-((1-(4-(2,4-dioxotetrahydropyrimidin-1(2H)-yl)phenyl)piperidin-4-yl)methyl)piperazin-1-yl)-2-(2-fluoro-3-methyl-4-(3-(pyridin-2-yl)-1,2,4-oxadiazol-5-yl)phenyl)-9,10-dihydro-4H-benzo[d]pyrazolo[1,5-a][1,3]diazepine-3-carboxamide], at BTK, half-maximal degradation (DC50) was put at 15 nM. Also, in the assay with HEK-293 cells, the IC50 is over 10000 nM.

Molecule `Cc1cccc(N(CC(=O)OC(C)(C)C)C(=O)c2ccc(-c3nn4c(c3C(N)=O)Nc3ccc(N5CCN(CC6CCN(c7ccc(N8CCC(=O)N(CC(=O)OC(C)(C)C)C8=O)cc7)CC6)CC5)cc3CC4)c(F)c2C)n1` [Example B77, tert-butyl 2-(3-(4-(4-((4-(2-(4-((2-(tert-butoxy)-2-oxoethyl)(6-methylpyridin-2-yl)carbamoyl)-2-fluoro-3-methylphenyl)-3-carbamoyl-9,10-dihydro-4H-benzo[d]pyrazolo[1,5-a][1,3]diazepin-7-yl)piperazin-1-yl)methyl)piperidin-1-yl)phenyl)-2,6-dioxotetrahydropyrimidin-1(2H)-yl)acetate] showed a DC50 on BTK of over 2000 nM. Moreover, the IC50 with HEK-293 cells came to 38.3 nM.

In the case of `Cc1cccc(NC(=O)c2cc(F)c(-c3nn4c(c3C(N)=O)Nc3ccc(N5CCN(CC6CCN(c7ccc(N8CCC(=O)NC8=O)cc7)CC6)CC5)cc3CC4)cc2C)n1` [Example B30, 7-(4-((1-(4-(2,4-dioxotetrahydropyrimidin-1(2H)-yl)phenyl)piperidin-4-yl)methyl)piperazin-1-yl)-2-(2-fluoro-5-methyl-4-((6-methylpyridin-2-yl)carbamoyl)phenyl)-9,10-dihydro-4H-benzo[d]pyrazolo[1,5-a][1,3]diazepine-3-carboxamide], on BTK, the DC50 turned out to be 2.53 nM. In addition, in the assay on HEK-293 cells, the IC50 was over 10000 nM.

On BTK, `Cc1cccc(NC(=O)c2ccc(-c3nn4c(c3C(N)=O)Nc3ccc(N5CCN(CC6CCN(c7ccc(N8CCC(=O)N(CC(=O)OC(C)(C)C)C8=O)cc7)CC6)CC5)cc3CC4)c(F)c2C)n1` [Example B76, tert-butyl 2-(3-(4-(4-((4-(3-carbamoyl-2-(2-fluoro-3-methyl-4-((6-methylpyridin-2-yl)carbamoyl)phenyl)-9,10-dihydro-4H-benzo[d]pyrazolo[1,5-a][1,3]diazepin-7-yl)piperazin-1-yl)methyl)piperidin-1-yl)phenyl)-2,6-dioxotetrahydropyrimidin-1(2H)-yl)acetate] gave a DC50 of over 2000 nM. Moreover, the IC50 in the assay with HEK-293 cells is over 10000 nM.
